Experimental data: US20100048564A1, “FUSED BICYCLIC HETEROARYL DERIVATIVE” (DAIICHI SANKYO COMPANY, LIMITED, priority 2007, published 2010)

Legend:
[1] = tested on: KK mice; test: Hypoglycemic effect in diabetic KK mice (Test Example 1); assay type: in vivo; conditions: Mus musculus, po, 72 h; male KK mice, diet admixture containing 0.03% of the compound, 3 days, plasma glucose vs control group; read-out: Hypoglycemic rate (%)
Source text: Six-week-old male KK mice were purchased from CLEA Japan, Inc. and then were fed until 15 to 20 weeks old to develop diabetes. The mice were individually fed during the adaptation period and the test period, and water and feed (FR2, Funabashi Farm) were freely ingested.
At the start of the experiment, after body weight measurement, blood was collected from the tail vein of the mice into a heparin-coated glass tube and centrifuged, and then plasma was separated. The glucose level in the plasma was measured by Glucoloader GXT (A&T Corp.), and individuals having a plasma glucose level of about 350 mg/dl or more were selected. The mice were grouped, each group having 3 to 4 mice, to make the average body weight and the average plasma glucose level similar. Each compound was administered to a compound group with a diet admixture containing 0.03% of the compound. A separate group in which the mice were fed only with diet was a control group.
The experiment period (drug administration period) was three days. The grouping day was the 0th day. On the 3rd day, the body weight was measured and blood was collected from the tail vein to measure the plasma glucose level.
The hypoglycemic rate was determined by the following formula.
Hypoglycemic rate=[(Control group blood glucose level−Compound-administered group blood glucose level)/Control group blood glucose level]×100

Row | Structure (SMILES) | melting point [°C] | inhibition in vivo at 0.03 % in diet [1] [%]
1 | COC(=O)c1cccc(OCc2nc3ccc(Oc4cccnc4)cc3n2C)c1.Cl.Cl | 195 to 208 | –
2 | Cn1c(COc2cccc(C(=O)O)c2)nc2ccc(Oc3ccccc3F)cc21 [Example 28, 3-{[6-(2-Fluorophenoxy)-1-methyl-1H-benzimidazol-2-yl]methoxy}benzoic acid] | – | 61
3 | COc1cccc(Oc2ccc3nc(COc4cccc(C(=O)O)c4)n(C)c3c2)c1 [Example 29, 3-{[6-(3-Methoxyphenoxy)-1-methyl-1H-benzimidazol-2-yl]methoxy}benzoic acid] | – | 60
4 | Cl.Cn1c(COc2cccc(C(=O)O)c2)nc2ccc(Oc3cccc(Cl)c3)cc21 [Example 31, 3-[6-(3-Chlorophenoxy)-1-methyl-1H-benzimidazol-2-ylmethoxy]benzoic acid hydrochloride] | 218 to 222 | 47
5 | Cn1c(COc2cccc(C(=O)O)c2)nc2ccc(Oc3cccc(OC(F)(F)F)c3)cc21 [Example 33, 3-({1-Methyl-6-[3-(trifluoromethoxy)phenoxy]-1H-benzimidazol-2-yl}methoxy]benzoic acid] | 221 to 227 | 42
6 | Cn1c(COc2cccc(C(=O)O)c2)nc2ccc(Oc3cc(F)cc(Cl)c3)cc21 [Example 38, 3-{[6-(3-Chloro-5-fluorophenoxy)-1-methyl-1H-benzimidazol-2-yl]methoxy}benzoic acid] | 209 to 213 | –
7 | Cc1cc(F)cc(Oc2ccc3nc(COc4cccc(C(=O)O)c4)n(C)c3c2)c1 [Example 40, 3-{[6-(3-Fluoro-5-methylphenoxy)-1-methyl-1H-benzimidazol-2-yl]methoxy}benzoic acid] | 224 to 226 | –
8 | Cn1c(COc2cccc(C(=O)O)c2)nc2ccc(Oc3cc(F)ccc3F)cc21 [Example 41, 3-{[6-(2,5-Difluorophenoxy)-1-methyl-1H-benzimidazol-2-yl]methoxy}benzoic acid] | – | 51
9 | CCc1cccc(Oc2ccc3nc(COc4cccc(C(=O)O)c4)n(C)c3c2)c1 [Example 42, 3-{[6-(3-Ethylphenoxy)-1-methyl-1H-benzimidazol-2-yl]methoxy}benzoic acid] | 204 to 208 | 29
10 | Cc1ccc(Oc2ccc3nc(COc4cccc(C(=O)O)c4)n(C)c3c2)cc1 [Example 49, 3-{[1-Methyl-6-(4-methylphenoxy)-1H-benzimidazol-2-yl]methoxy}benzoic acid] | – | 48
11 | COc1cc(Oc2ccc3nc(COc4cccc(C(=O)O)c4)n(C)c3c2)ccc1C [Example 54, 3-{[6-(3-Methoxy-4-methylphenoxy)-1-methyl-1H-benzimidazol-2-yl]methoxy}benzoic acid] | – | 32
12 | Cc1ccc(Oc2ccc3nc(COc4cccc(C(=O)O)c4)n(C)c3c2)cc1C [Example 55, 3-{[6-(3,4-Dimethylphenoxy)-1-methyl-1H-benzimidazol-2-yl]methoxy}benzoic acid] | – | 44
13 | Cn1c(COc2cc(F)cc(C(=O)O)c2)nc2ccc(Oc3ccc(Cl)c(F)c3)cc21 [Example 59, 3-{[6-(4-Chloro-3-fluorophenoxy)-1-methyl-1H-benzimidazol-2-yl]methoxy}-5-fluorobenzoic acid] | – | 47
14 | CCC(CC)Oc1ccc2nc(COc3cccc(C(=O)O)c3)n(C)c2c1 [Example 67, 3-{[6-(1-Ethylpropoxy)-1-methyl-1H-benzimidazol-2-yl]methoxy}benzoic acid] | – | 50
15 | Cc1ccc(Oc2ccc3nc(COc4cccc(C(=O)O)c4)n(C)c3n2)cc1 [Example 69, 3-{[3-Methyl-5-(4-methylphenoxy)-3H-imidazo[4,5-b]pyridin-2-yl]methoxy}benzoic acid] | – | 43
16 | Cc1ccc(Oc2ccc3nc(COc4cccc(C(=O)O)c4)n(C)c3n2)cc1C [Example 70, 3-{[5-(3,4-Dimethylphenoxy)-3-methyl-3H-imidazo[4,5-b]pyridin-2-yl]methoxy}benzoic acid] | – | 38
17 | Cc1ccc(Oc2ccc3nc(COc4cc(F)cc(C(=O)O)c4)n(C)c3n2)cc1 [Example 72, 3-Fluoro-5-{[3-methyl-5-(4-methylphenoxy)-3H-imidazo[4,5-b]pyridin-2-yl]methoxy}benzoic acid] | – | 42
